# Active and inactive are the calls of the source.
# Legend:
# [1] = Equipotent molar ratio relative to carbachol for nicotininc activity in frog was determined; format: functional
# Rattus norvegicus [2] = experiment: Ganglionic muscarinic activity was determined by the changes in mean arterial blood pressure of the pithed rat treated with to produce a half-maximal pressure response up i.v. administration; format: functional; conditions: iv
# [3] = biological target: T1, Muscarinic acetylcholine receptor (Homo sapiens) (UniProt P20309+P08173+P11229+P08172+P08912); experiment: Tested in vitro for agonistic activity of compound towards muscarinic receptor in the concentration range of 1xe-6 to 1xe-4 M of guinea pig ileum; Responce varied in the range 17- 40%; format: functional, tissue-based; conditions: Cavia porcellus, filed as partial agonist, target entry is the homologue from another species
# [4] = biological target: T1, Muscarinic acetylcholine receptor (Homo sapiens); experiment: Tested in vitro for agonistic activity of compound towards muscarinic receptor in the concentration range of 1xe-6 to 1xe-4 M of guinea pig ileum; Inactive; format: functional, tissue-based; conditions: Cavia porcellus, target entry is the homologue from another species
# Rattus norvegicus [5] = experiment: Ganglionic muscarinic activity was determined by the changes in mean arterial blood pressure of the pithed rat treated with to produce a half-maximal pressure response up i.v. administration; Inactive when assayed a dose range of 1-10 umol/Kg; format: functional, organism-based
Max respose [4],SMILES,Ratio [1],ED50 (Rattus norvegicus [2]) [µmol/kg],Max respose [3],ED50 (Rattus norvegicus [5])
–,C[N+](C)(C)CC#CCOC(=O)Nc1cccc(Br)c1,4,0.7,Partial agonist,–
–,C[N+](C)(C)CC#CCOC(=O)Nc1cccc(Cl)c1,–,0.59,–,–
inactive,C[S+](C)CC#CCOC(=O)Nc1cccc(Cl)c1.[O-][Cl+3]([O-])([O-])[O-],–,1.49,–,–
inactive,C[S+](C)CC#CCOC(=O)Nc1ccc(Cl)cc1.[O-][Cl+3]([O-])([O-])[O-],–,1.52,–,–
–,C[N+](C)(C)CC#CCOC(=O)Nc1ccc(Br)cc1,3.7,0.22,Partial agonist,–
–,CN(C)CC#CCOC(=O)Nc1cccc(Br)c1,–,–,–,Inactive when assayed a dose range of 1-10 umol/Kg
–,CN(C)CC#CCOC(=O)Nc1ccc(Br)cc1,–,–,–,Inactive when assayed a dose range of 1-10 umol/Kg
inactive,C[S+](C)CC#CCOC(=O)Nc1ccc(Br)cc1.[O-][Cl+3]([O-])([O-])[O-],–,1.56,–,–
inactive,C[S+](C)CC#CCOC(=O)Nc1cccc(Br)c1.[O-][Cl+3]([O-])([O-])[O-],–,1.47,–,–

# Reference: ChEMBL document CHEMBL1124530, “Dimethylsulfonium analogues of the muscarinic agent McN-A-343: [4-[[N-(3- or 4-halophenyl)carbamoyl]oxy]-2-butynyl] dimethylsulfonium perchlorates” (1989)
